{
  "source": "ChEMBL document CHEMBL6078666",
  "about": "“Discovery of Novel Coumarin Pleuromutilin Derivatives as Potent Anti-MRSA Agents” (J Med Chem, 2024)",
  "key": {"Staphylococcus aureus [1]": {"system": "Staphylococcus aureus", "assay": "(§1) Antibacterial activity against methicillin-resistant Staphylococcus aureus ATCC 33591 infected in female C57 mouse systemic infection model assessed as reduction in local blood cell accumulation in spleen at 40 mg/kg, iv administered twice daily and measured after 7 days by H and E staining based analysis", "type": "functional, organism-based", "settings": "time 7.0 day"}, "Staphylococcus aureus [2]": {"system": "Staphylococcus aureus", "assay": "Ratio of MBC to MIC against methicillin-resistant Staphylococcus aureus clinical isolate 202313160", "type": "functional"}, "[3]": {"assay": "MRT in mouse at 5 mg/kg, iv measured after 8 hrs", "type": "ADME, organism-based", "settings": "in vivo"}, "Staphylococcus aureus [4]": {"system": "Staphylococcus aureus", "assay": "Bactericidal activity against methicillin-resistant Staphylococcus aureus ATCC 33591 measured upto 24 hrs by time kill assay", "type": "functional, organism-based"}, "Staphylococcus aureus [5]": {"system": "Staphylococcus aureus", "assay": "Ratio of MBC to MIC against Staphylococcus aureus ATCC 43300", "type": "functional"}, "Staphylococcus aureus [6]": {"system": "Staphylococcus aureus", "assay": "Antibiofilm activity in methicillin-resistant Staphylococcus aureus ATCC 33591 assessed as inhibition of biofilm formation measured after 48 hrs by crystal violet staining based analysis relative to control", "type": "functional, organism-based"}, "Staphylococcus aureus [7]": {"system": "Staphylococcus aureus", "assay": "Antibiofilm activity in methicillin-resistant Staphylococcus aureus ATCC 33591 assessed as disruption of preformed biofilm at 4 to 16 times MIC measured after 24 hrs by crystal violet staining based assay relative to control", "type": "functional"}, "Staphylococcus aureus [8]": {"system": "Staphylococcus aureus", "assay": "Antibacterial activity against methicillin-resistant Staphylococcus aureus clinical isolate 202313160 assessed as bacterial growth inhibition measured after 20 hrs by broth dilution method", "type": "functional"}, "Staphylococcus aureus [9]": {"system": "Staphylococcus aureus", "assay": "Antibacterial activity against methicillin resistant Staphylococcus aureus ATCC 33591 assessed as post antibiotic effect at 2 times MIC by time kill assay", "type": "functional"}, "[10]": {"system": "Staphylococcus epidermidis", "assay": "Ratio of MBC to MIC against methicillin-resistant Staphylococcus epidermidis clinical isolate 202409139", "type": "functional"}, "Enterococcus faecium [11]": {"system": "Enterococcus faecium", "assay": "Ratio of MBC to MIC against vancomycin-resistant Enterococcus faecium ATCC 51559", "type": "functional"}, "Staphylococcus aureus [12]": {"system": "Staphylococcus aureus", "assay": "Antibacterial activity against methicillin-resistant Staphylococcus aureus ATCC 33591 infected in female C57 mouse systemic infection model assessed as effective dose", "type": "functional"}, "Staphylococcus aureus [13]": {"system": "Staphylococcus aureus", "assay": "Antibacterial activity against methicillin-resistant Staphylococcus aureus clinical isolate 202311772 assessed as bacterial growth inhibition measured after 20 hrs by broth dilution method", "type": "functional"}, "Staphylococcus aureus [14]": {"system": "Staphylococcus aureus", "assay": "Antibiofilm activity in methicillin-resistant Staphylococcus aureus ATCC 33591 assessed as inhibition of biofilm formation at 1/16 times MIC measured after 48 hrs by crystal violet staining based analysis relative to control", "type": "functional", "parameters": "scale not given: the % may be the effect or the level left"}, "Staphylococcus aureus [15]": {"system": "Staphylococcus aureus", "assay": "Antibacterial activity against methicillin-resistant Staphylococcus aureus ATCC 33591 infected in female C57 mouse systemic infection model assessed as reduction in bacterial load in kidney at 40 mg/kg, iv administered twice daily and measured after 7 days", "type": "functional", "settings": "time 7 day"}, "Enterococcus faecium [16]": {"system": "Enterococcus faecium", "assay": "Antibacterial activity against vancomycin-resistant Enterococcus faecium ATCC 700221 assessed as bacterial growth inhibition measured after 20 hrs by broth dilution method", "type": "functional"}, "Staphylococcus aureus [17]": {"system": "Staphylococcus aureus", "assay": "Drug resistance, ratio of MIC for Staphylococcus aureus ATCC 33591 after 8 days to MIC for methicillin-resistant Staphylococcus aureus ATCC 33591 after initial exposure", "type": "functional", "settings": "time 8 day"}, "[18]": {"assay": "Half life in mouse at 5 mg/kg, iv measured after 8 hrs", "type": "ADME, organism-based", "settings": "in vivo"}, "Staphylococcus aureus [19]": {"system": "Staphylococcus aureus", "assay": "Antibacterial activity against methicillin-resistant Staphylococcus aureus ATCC 33591 infected in female C57 mouse systemic infection model assessed as survival rate at 40 mg/kg, po measured upto 7 days relative to control", "type": "functional", "settings": "ATCC 33591, 168 h, time <= 7 day"}, "[20]": {"assay": "Acute toxicity in po dosed female C57 mouse assessed as lethal dose measured after 48 hrs", "type": "organism-based", "settings": "in vivo"}, "[21]": {"system": "Staphylococcus epidermidis", "assay": "Antibacterial activity against methicillin-resistant Staphylococcus epidermidis clinical isolate 202409454 assessed as bacterial growth inhibition measured after 20 hrs by broth dilution method", "type": "functional"}, "[22]": {"assay": "Hemolytic activity in rabbit RBC assessed as hemolysis rate at 0 to 100 ug/ml incubated for 1 hr by microplate reader analysis relative to control", "type": "toxicity, cell-based, Oryctolagus cuniculus, Erythrocyte", "settings": "rabbit red blood cells, dose 0-100 µg/ml, read-out: Activity"}, "Staphylococcus aureus [23]": {"system": "Staphylococcus aureus", "assay": "as §1, with “number of inflammatory cells” for “local blood cell accumulation”, “heart” for “spleen”", "type": "functional, organism-based", "settings": "time 7.0 day"}, "Enterococcus faecium [24]": {"system": "Enterococcus faecium", "assay": "Antibacterial activity against vancomycin-resistant Enterococcus faecium ATCC 51559 assessed as bacterial growth inhibition measured after 20 hrs by broth dilution method", "type": "functional"}, "Staphylococcus aureus [25]": {"system": "Staphylococcus aureus", "assay": "as §1, with “reduction of mononuclear cell infiltration” for “reduction”, “liver” for “local blood cell accumulation in spleen”", "type": "functional, organism-based", "settings": "time 7.0 day"}, "[26]": {"system": "Staphylococcus epidermidis", "assay": "Antibacterial activity against methicillin-resistant Staphylococcus epidermidis clinical isolate 202409139 assessed as bacterial growth inhibition measured after 20 hrs by broth dilution method", "type": "functional"}, "Staphylococcus aureus [27]": {"system": "Staphylococcus aureus", "assay": "Antibacterial activity against Staphylococcus aureus ATCC 33591 measured after 9 days", "type": "functional, organism-based", "settings": "time 9.0 day"}, "Staphylococcus aureus [28]": {"system": "Staphylococcus aureus", "assay": "Antibacterial activity against Staphylococcus aureus ATCC 25923 assessed as reduction in GFP expression at 1 to 4 times MIC measured after 1 hr by fluorescence microscopy based analysis", "type": "functional, organism-based"}, "Staphylococcus aureus [29]": {"system": "Staphylococcus aureus", "assay": "Antibacterial activity against methicillin resistant Staphylococcus aureus ATCC 33591 assessed as post antibiotic effect at 4 times MIC by time kill assay", "type": "functional"}, "Enterococcus faecium [30]": {"system": "Enterococcus faecium", "assay": "Ratio of MBC to MIC against vancomycin-resistant Enterococcus faecium ATCC 700221", "type": "functional"}, "Staphylococcus aureus [31]": {"system": "Staphylococcus aureus", "assay": "Antibacterial activity against methicillin-resistant Staphylococcus aureus ATCC 33591 infected in female C57 mouse systemic infection model assessed as survival rate at 20 mg/kg, po measured upto 7 days relative to control", "type": "functional", "settings": "ATCC 33591, 168 h, time <= 7 day"}, "Staphylococcus aureus [32]": {"system": "Staphylococcus aureus", "assay": "Bactericidal activity against methicillin-resistant Staphylococcus aureus ATCC 33591 at 1 to 8 times MIC by time kill assay", "type": "functional, organism-based", "settings": "time <= 24.0 hrs"}, "Staphylococcus aureus [33]": {"system": "Staphylococcus aureus", "assay": "(§2) Antibacterial activity against methicillin-resistant Staphylococcus aureus ATCC 33591 infected in female C57 mouse systemic infection model assessed as reduction in vacuolation in heart at 40 mg/kg, iv administered twice daily and measured after 7 days by H and E staining based analysis", "type": "functional, organism-based", "settings": "time 7.0 day"}, "Staphylococcus aureus [34]": {"system": "Staphylococcus aureus", "assay": "as §2, with “inflammatory cell aggregation” for “vacuolation”, “lung” for “heart”", "type": "functional, organism-based", "settings": "time 7.0 day"}, "L02": {"system": "L02", "assay": "Cytotoxicity against human HL7702 cells at 0 to 40 ug/ml measured after 24 hrs by MTT assay relative to control", "type": "toxicity, cell-based", "settings": "l02, 24 h, dose 0-40 µg/ml"}, "[35]": {"system": "Staphylococcus epidermidis", "assay": "Ratio of MBC to MIC against Staphylococcus epidermidis ATCC 51625", "type": "functional"}, "[36]": {"assay": "Hemolytic activity in rabbit RBC assessed as hemolysis rate at 200 ug/ml incubated for 1 hr by microplate reader analysis relative to control", "type": "toxicity, cell-based, Oryctolagus cuniculus, Erythrocyte", "settings": "rabbit red blood cells, at 200 µg/mL, read-out: Activity"}, "Staphylococcus aureus [37]": {"system": "Staphylococcus aureus", "assay": "Antibacterial activity against methicillin-resistant Staphylococcus aureus ATCC 33591 assessed as bacterial growth inhibition measured after 20 hrs by broth dilution method", "type": "functional"}, "HepG2": {"system": "HepG2", "assay": "Cytotoxicity against human HepG2 cells at 0 to 40 ug/ml measured after 24 hrs by MTT assay relative to control", "type": "functional", "settings": "dose 0-40 µg/ml"}, "Streptococcus pneumoniae": {"system": "Streptococcus pneumoniae", "assay": "Antibacterial activity against penicillin-resistant Streptococcus pneumoniae ATCC 51916 assessed as bacterial growth inhibition measured after 20 hrs by broth dilution method", "type": "functional"}},
  "note": "Activity calls are given as the source filed them. The rule behind the calls is not given here.",
  "data": [
    {"smiles": "C=C[C@]1(C)C[C@@H](OC(=O)CSc2cc(=O)oc3cc(OC)ccc23)[C@]2(C)[C@H](C)CC[C@]3(CCC(=O)[C@H]32)[C@@H](C)[C@@H]1O", "values": [
      {"measurement": "Activity", "setting": "Staphylococcus aureus [1]", "result": "Active"},
      {"measurement": "Ratio", "setting": "Staphylococcus aureus [2]", "result": 2},
      {"measurement": "MRT", "setting": "[3]", "result": 0.61, "unit": "h"},
      {"measurement": "Activity", "setting": "Staphylococcus aureus [4]", "result": "Dose-dependent-effect"},
      {"measurement": "Ratio", "setting": "Staphylococcus aureus [5]", "result": ">4"},
      {"measurement": "Activity", "setting": "Staphylococcus aureus [6]", "result": "Dose-dependent-effect"},
      {"measurement": "Activity", "setting": "Staphylococcus aureus [7]", "result": 68.29, "unit": "%"},
      {"measurement": "MIC", "setting": "Staphylococcus aureus [8]", "result": 0.063, "unit": "µg/mL"},
      {"measurement": "PAE", "setting": "Staphylococcus aureus [9]", "result": 1.51, "unit": "h"},
      {"measurement": "Ratio", "setting": "[10]", "result": 2},
      {"measurement": "Ratio", "setting": "Enterococcus faecium [11]", "result": 1},
      {"measurement": "ED50", "setting": "Staphylococcus aureus [12]", "result": 11.2, "unit": "mg/kg"},
      {"measurement": "MIC", "setting": "Staphylococcus aureus [13]", "result": 0.031, "unit": "µg/mL"},
      {"measurement": "Activity", "setting": "Staphylococcus aureus [14]", "result": 80.67, "unit": "%"},
      {"measurement": "Activity", "setting": "Staphylococcus aureus [15]", "result": 1.91, "unit": "log10CFU/g"},
      {"measurement": "MIC", "setting": "Enterococcus faecium [16]", "result": 0.031, "unit": "µg/mL"},
      {"measurement": "fold change (FC)", "setting": "Staphylococcus aureus [17]", "result": 4},
      {"measurement": "half-life", "setting": "[18]", "result": 1.52, "unit": "h"},
      {"measurement": "survival at 40 mg/kg", "setting": "Staphylococcus aureus [19]", "result": 80, "unit": "%"},
      {"measurement": "LD50 at 48 h", "setting": "[20]", "result": 2000, "unit": "mg/kg"},
      {"measurement": "MIC", "setting": "[21]", "result": 0.063, "unit": "µg/mL"},
      {"measurement": "hemolysis at 1 h", "setting": "[22]", "result": "< 4", "unit": "%"},
      {"measurement": "Activity", "setting": "Staphylococcus aureus [23]", "result": "Active"},
      {"measurement": "MIC", "setting": "Enterococcus faecium [24]", "result": 0.031, "unit": "µg/mL"},
      {"measurement": "Activity", "setting": "Staphylococcus aureus [25]", "result": "Active"},
      {"measurement": "MIC", "setting": "[26]", "result": 0.031, "unit": "µg/mL"},
      {"measurement": "Activity", "setting": "Staphylococcus aureus [27]", "result": "inactive"},
      {"measurement": "Activity", "setting": "Staphylococcus aureus [28]", "result": "Active"},
      {"measurement": "PAE", "setting": "Staphylococcus aureus [29]", "result": 1.9, "unit": "h"},
      {"measurement": "Ratio", "setting": "Enterococcus faecium [30]", "result": 1},
      {"measurement": "survival at 20 mg/kg", "setting": "Staphylococcus aureus [31]", "result": 60, "unit": "%"},
      {"measurement": "Activity", "setting": "Staphylococcus aureus [32]", "result": "Time-dependent-effect"},
      {"measurement": "Activity", "setting": "Staphylococcus aureus [33]", "result": "Active"},
      {"measurement": "Activity", "setting": "Staphylococcus aureus [34]", "result": "Active"},
      {"measurement": "Activity", "setting": "L02", "result": "> 85", "unit": "%"},
      {"measurement": "Ratio", "setting": "[35]", "result": 4},
      {"measurement": "hemolysis at 1 h, 200 ug/ml", "setting": "[36]", "result": "< 8", "unit": "%"},
      {"measurement": "MIC", "setting": "Staphylococcus aureus [37]", "result": 0.031, "unit": "µg/mL"},
      {"measurement": "Activity", "setting": "HepG2", "result": ">85", "unit": "%"},
      {"measurement": "MIC", "setting": "Streptococcus pneumoniae", "result": 0.063, "unit": "µg/mL"}
    ]}
  ]
}
